{"source": "the NIST ThermoML archive (doi:10.1021/je034182z)", "key": {"[1]": {"conditions": "298.15 K; 101.33 kPa; Liquid"}, "[2]": {"assay": "refractive index (Na D-line) (dimensionless)", "conditions": "298.15 K; 101.33 kPa; Liquid; Standard Abbe refractometry"}}, "note": "± gives the expanded uncertainty stated by the source.", "data": [{"smiles": "Cc1cccc(C)c1", "note": "[1,3-dimethylbenzene]", "values": [{"measurement": "mass density", "setting": "[1]", "result": "860.3 ± 0.5", "unit": "kg/m3"}, {"measurement": "refractive index", "setting": "[2]", "result": "1.4947 ± 0.0007"}]}, {"smiles": "CCCCCCC", "note": "[heptane]", "values": [{"measurement": "mass density", "setting": "[1]", "result": "679.4 ± 0.8", "unit": "kg/m3"}, {"measurement": "refractive index", "setting": "[2]", "result": "1.3854 ± 0.0007"}]}, {"smiles": "CCCCCC", "note": "[hexane]", "values": [{"measurement": "mass density", "setting": "[1]", "result": "655.1 ± 0.7", "unit": "kg/m3"}, {"measurement": "refractive index", "setting": "[2]", "result": "1.3747 ± 0.0007"}]}, {"smiles": "CCCCCCCC", "note": "[octane]", "values": [{"measurement": "mass density", "setting": "[1]", "result": "698.5 ± 0.8", "unit": "kg/m3"}, {"measurement": "refractive index", "setting": "[2]", "result": "1.3954 ± 0.0007"}]}, {"smiles": "C1CCOC1", "note": "[tetrahydrofuran]", "values": [{"measurement": "mass density", "setting": "[1]", "result": "881.9 ± 1.3", "unit": "kg/m3"}, {"measurement": "refractive index", "setting": "[2]", "result": "1.4047 ± 0.0007"}]}]}
